From article PMC7158045 (BMC Plant Biology, 2020)
Where a name gives a salt, the structure may show the parent alone.

What was measured:
Experiment in all cases: biochemical
ZmDRIK1-R187-P492 = target: T1, ZmDRIK1-R187-P492 (Zea mays, UniProt C0P4K9); conditions: read-out: dTm B, DSF, Boltzmann fit, 0.1% DMSO
T1 construct: kinase domain, R187-P492
T1 sequence (C0P4K9 1-514): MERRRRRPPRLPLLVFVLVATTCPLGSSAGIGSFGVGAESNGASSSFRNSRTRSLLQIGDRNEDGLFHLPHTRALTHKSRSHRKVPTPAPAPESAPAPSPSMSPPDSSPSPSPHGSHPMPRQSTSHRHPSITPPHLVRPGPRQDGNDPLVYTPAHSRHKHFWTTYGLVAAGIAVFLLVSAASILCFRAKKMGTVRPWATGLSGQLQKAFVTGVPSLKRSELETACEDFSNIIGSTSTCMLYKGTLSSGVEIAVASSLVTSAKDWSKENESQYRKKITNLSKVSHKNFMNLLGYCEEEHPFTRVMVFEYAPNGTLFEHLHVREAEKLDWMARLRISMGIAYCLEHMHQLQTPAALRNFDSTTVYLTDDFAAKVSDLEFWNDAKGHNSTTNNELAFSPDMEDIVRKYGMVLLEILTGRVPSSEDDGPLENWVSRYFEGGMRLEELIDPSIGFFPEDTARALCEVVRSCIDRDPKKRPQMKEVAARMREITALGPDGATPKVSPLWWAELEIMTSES

[1] = target: T2, ZmDRIK1 (DROUGHT RESPONSIVE INACTIVE KINASE 1), kinase domain (Zea mays, UniProt C0P4K9); conditions: read-out: dTm B, sheet ZmDRIK1-R187-S514;; DSF, Boltzmann fit, 0.1% DMSO
T2 construct: gene ZEAMMB73_Zm00001d028770; ZmDRIK1-KD R187-S514 (kinase domain)
T2 sequence (C0P4K9 187-514): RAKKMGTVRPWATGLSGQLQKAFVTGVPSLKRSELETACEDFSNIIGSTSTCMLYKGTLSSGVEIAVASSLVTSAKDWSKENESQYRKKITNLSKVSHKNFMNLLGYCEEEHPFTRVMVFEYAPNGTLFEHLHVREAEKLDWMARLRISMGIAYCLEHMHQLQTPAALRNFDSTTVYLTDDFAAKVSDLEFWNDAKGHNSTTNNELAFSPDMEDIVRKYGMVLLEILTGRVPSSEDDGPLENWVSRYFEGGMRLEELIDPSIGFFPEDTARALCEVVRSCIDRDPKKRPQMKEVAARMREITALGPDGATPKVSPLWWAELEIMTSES

ZmDRIK1-K217-S514 = target: T3, ZmDRIK1-K217-S514 (Zea mays, UniProt C0P4K9); conditions: read-out: dTm B, sheet ZmDRIK1-K217-S514;; DSF, Boltzmann fit, 0.1% DMSO
T3 construct: kinase domain, K217-S514
T3 sequence (C0P4K9 1-514): T1 sequence (C0P4K9 1-514)

ZmDRIK1-K217-P492 = target: T4, ZmDRIK1-K217-P492 (Zea mays, UniProt C0P4K9); conditions: read-out: dTm B, sheet ZmDRIK1-K217-P492;; DSF, Boltzmann fit, 0.1% DMSO
T4 construct: kinase domain, K217-P492
T4 sequence (C0P4K9 1-514): T1 sequence (C0P4K9 1-514)

| SMILES | ΔTm at 10 µM (ZmDRIK1-R187-P492) [°C] | ΔTm at 10 µM [1] [°C] | ΔTm at 10 µM (ZmDRIK1-K217-S514) [°C] | ΔTm at 10 µM (ZmDRIK1-K217-P492) [°C] |
| --- | --- | --- | --- | --- |
| O=c1c(O)c(-c2ccc(O)c(O)c2)oc2cc(O)cc(O)c12 [Quercetin] | -0.357 | -0.63 | -0.0338 | -1.11 |
| CC(C)(C)c1cc(NC(=O)Nc2ccc(-c3cn4c(n3)sc3cc(OCCN5CCOCC5)ccc34)cc2)no1 [Quizartinib (AC220)] | -3.69 | -11.5 | -1.21 | -4.77 |
| COc1ccc(F)c(F)c1C(=O)c1cnc(NC2CCN(S(C)(=O)=O)CC2)nc1N [R547] | -0.297 | -0.939 | -0.339 | -1.09 |
| O=C(NCc1cccc(O)c1)Nc1nc(-c2ccncc2)cs1 [RKI-1447] | 0.716 | -0.456 | -0.42 | -0.48 |
| CO[C@H]1C[C@@H]2CC[C@@H](C)[C@@](O)(O2)C(=O)C(=O)N2CCCC[C@H]2C(=O)O[C@H]([C@H](C)C[C@@H]2CC[C@@H](O)[C@H](OC)C2)CC(=O)[C@H](C)/C=C(\C)[C@@H](O)[C@@H](OC)C(=O)[C@H](C)C[C@H](C)/C=C/C=C/C=C/1C [Rapamycin (Sirolimus)] | -1.03 | -1.41 | -0.483 | -1.45 |
| COc1cc(F)c(F)c(Nc2ccc(I)cc2F)c1NS(=O)(=O)C1(C[C@H](O)CO)CC1 [Refametinib (RDEA119)] | -0.163 | -1.12 | -0.254 | -0.93 |
| CNC(=O)c1cc(Oc2ccc(NC(=O)Nc3ccc(Cl)c(C(F)(F)F)c3)c(F)c2)ccn1 [Regorafenib (BAY 73-4506)] | -5.88 | -15.3 | -0.13 | -8.99 |
| CO[C@H]1C[C@@H]2CC[C@@H](C)[C@@](O)(O2)C(=O)C(=O)N2CCCC[C@H]2C(=O)O[C@H]([C@H](C)C[C@@H]2CC[C@@H](OP(C)(C)=O)[C@H](OC)C2)CC(=O)[C@H](C)/C=C(\C)[C@@H](O)[C@@H](OC)C(=O)[C@H](C)C[C@H](C)/C=C/C=C/C=C/1C [Ridaforolimus (Deforolimus)] | -0.365 | -0.675 | -0.213 | -1.84 |
| COc1cc(OC)c(/C=C/S(=O)(=O)Cc2ccc(OC)c(NCC(=O)O)c2)c(OC)c1 [Rigosertib (ON-01910)] | -0.217 | -0.824 | -0.421 | -0.805 |
| Cn1cc(C2=C(c3cn(CCCSC(=N)N)c4ccccc34)C(=O)NC2=O)c2ccccc21 [Ro 31-8220 Mesylate] | -0.197 | -0.819 | -0.33 | -1.24 |
| CCn1c(N)c(C(=O)NC)c(=O)c2ccc(C#C[C@@](C)(O)COC)nc21 [SAR131675] | -0.181 | -0.688 | -0.272 | -0.827 |
| Oc1ccc(-c2nc(-c3ccc(F)cc3)c(-c3ccncc3)[nH]2)cc1 [SB202190 (FHPI)] | -18.3 | 0.194 | 2.58 | 1.22 |
| Cn1cc(C2=C(c3ccc(Cl)cc3Cl)C(=O)NC2=O)c2ccccc21 [SB216763] | -0.115 | -0.887 | -0.35 | -1.29 |
| CN(C)CCOc1ccc(-c2nc(-c3ccncc3)c(-c3ccc4c(c3)CC/C4=N\O)[nH]2)cc1 [SB590885] | -0.167 | -0.734 | -0.286 | -0.936 |
| CN[C@@H]1C[C@H]2O[C@@](C)([C@@H]1OC)n1c3ccccc3c3c4c(c5c6ccccc6n2c5c31)C(=O)NC4 [Staurosporine] | -0.154 | -0.601 | -0.232 | -0.631 |

The next lines start with the values.

| ΔTm at 10 µM (ZmDRIK1-R187-P492) [°C] | ΔTm at 10 µM [1] [°C] | ΔTm at 10 µM (ZmDRIK1-K217-S514) [°C] | ΔTm at 10 µM (ZmDRIK1-K217-P492) [°C] | SMILES |
| --- | --- | --- | --- | --- |
| -0.27 | -1.1 | -0.336 | -0.576 | CN1CCC(CNc2ccc3ncc(-c4cccc(OC(F)(F)F)c4)n3n2)CC1 [SGI-1776 free base] |
| -0.0185 | -0.576 | -0.351 | -0.7 | Cn1cc(-c2ccc3nnc(Sc4ccc5ncccc5c4)n3n2)cn1 [SGX-523] |
| -2.86 | 0.0373 | -1.52 | -0.22 | Oc1ccc(Nc2nc(-c3ccc(Cl)cc3)cs2)cc1 [SKI II] |
| -0.157 | -1.09 | -0.356 | -0.701 | N#C/C(=C(/N)Sc1ccc(N)cc1)c1ccccc1C(F)(F)F [SL-327] |
| 0.139 | -0.708 | -0.218 | -1.12 | O=C1NC(=O)/C(=C/c2cccc(C(F)(F)F)c2)S1 [SMI-4a] |
| -0.103 | -1.09 | -0.203 | -0.977 | CC(C)(C)c1cnc(CSc2cnc(NC(=O)C3CCNCC3)s2)o1 [SNS-032 (BMS-387032)] |
| 0.159 | -23.9 | -1.86 | -0.277 | O=C(Nc1cccc(Cl)c1)Nc1ncc(CCNc2ncnc3ccsc23)s1 [SNS-314 Mesylate] |
| -0.115 | -0.63 | -0.115 | -1.06 | Oc1c2ccccc2c2c3c(cccc13)N=N2 [SP600125] |
| -0.288 | -1.31 | -0.605 | -0.463 | Cc1[nH]c(/C=C2\C(=O)Nc3ccc(S(=O)(=O)N(C)c4cccc(Cl)c4)cc32)c(C)c1C(=O)N1CCN(C)CC1 [SU11274] |
| -0.196 | -0.646 | -0.253 | -1.11 | CN1CCN(CCOc2cc(OC3CCOCC3)c3c(Nc4c(Cl)ccc5c4OCO5)ncnc3c2)CC1 [Saracatinib (AZD0530)] |
| -0.268 | -0.69 | -0.433 | -1.37 | Cn1cnc2c(F)c(Nc3ccc(Br)cc3Cl)c(C(=O)NOCCO)cc21 [Selumetinib (AZD6244)] |
| -0.481 | -0.803 | -0.642 | -0.992 | O=C1c2ccc(Nc3ccc(F)cc3F)cc2CCc2ccc(OC[C@H](O)CO)cc21 [Skepinone-L] |
| -0.608 | -0.541 | -0.412 | -0.642 | CN1CCN(c2nc(C3=C(c4c[nH]c5ccccc45)C(=O)NC3=O)c3ccccc3n2)CC1 [Sotrastaurin] |
| -0.348 | -0.745 | -0.287 | -0.864 | CCN(CC)CCNC(=O)c1c(C)[nH]c(/C=C2\C(=O)Nc3ccc(F)cc32)c1C [Sunitinib Malate] |
| -0.231 | -0.781 | -0.321 | -0.725 | CNC(=O)c1ccccc1Nc1nc(Nc2ccc(N3CCOCC3)cc2OC)ncc1Cl [TAE226 (NVP-TAE226)] |
| 0.579 | -25.6 | 1.35 | -0.527 | CC(C)(O)CC(=O)NCCn1ccc2ncnc(Nc3ccc(Oc4cccc(C(F)(F)F)c4)c(Cl)c3)c21 [TAK-285] |
| -0.521 | 1.64 | -2.01 | 3.91 | N#Cc1c(Oc2ccc(F)c(NC(=O)Cc3cccc(C(F)(F)F)c3)c2)ccc2nc(NC(=O)C3CC3)sc12 [TAK-632] |
| -0.496 | -0.0163 | -0.442 | -1.08 | CCc1nc(-c2cccc(C)c2)c(-c2ccnc(NC(=O)c3ccccc3)c2)s1 [TAK-715] |
| -0.375 | -0.814 | -0.514 | -1.32 | Cn1c(=O)c(F)c(Nc2ccc(I)cc2F)c2c(=O)n(C[C@@H](O)CO)cnc21 [TAK-733] |
| -0.0329 | -0.544 | -0.0934 | -0.353 | CCS(=O)(=O)c1cccc(-c2cc(C(=O)NC3CCN(C)CC3)c(C)c3[nH]c4ncc(C)cc4c23)c1 [TAK-901] |
| -0.318 | 0.606 | -0.549 | -0.245 | COc1ccc(C(=O)Nc2sc3c(c2C(N)=O)CCCC3)cc1OC [TCS 359] |
